Where two headings read alike, the source gives them in different places.
Key:
p110α = p110α (Homo sapiens, UniProt P42336); assay: class I PI3K HTRF assay, p110α; format: biochemical
Description: (§1) DS7423 inhibits PI3K/mTOR activity likely binding to the ATP binding cleft of these enzymes and was tested against class I PI3K and other kinases using an HTRF assay format and direct measurement of substrate phosphorylation, respectively.

p110δ = p110δ (Homo sapiens, UniProt O00329); assay: class I PI3K HTRF assay, p110δ; format: biochemical
Description: as §1

p110β = p110β (Homo sapiens, UniProt P42338); assay: class I PI3K HTRF assay, p110β; format: biochemical
Description: as §1

panel of 227 kinases = assay: representative panel of 227 kinases in biochemical assays; conditions: greater than 50% inhibition only against 2 other kinases
Description: as §1

[1] = system: glioma cell lines and GICs; assay: CellTiter-Blue cell viability assay, 72 hours; format: cell-based; conditions: Homo sapiens
Description: To determine the cytotoxicity of DS in GBM cells and GICs in vitro, we used a colorimetric […] assay. […] To investigate the role of PI3K/PTEN, we expressed PTEN in PTEN-mutant U87 glioma cells.
A panel of GIC lines was treated with various concentrations of DS. Cells were treated with increasing concentrations of DS in triplicate wells for 72 hours, and cell viability was assessed by a CellTiter-Blue assay. The results shown are from a single experiment with three independent replicates. The graph depicts cell viability at 72 hours. Cell viability in the vehicle control was considered to be 100%.
Nine well characterized GBM cell lines and 22 patient-derived GIC lines (provided by Drs. Frederick. F. Lang and Erik. P. Sulman, Brain Tumor center, M. D. Anderson Cancer Center) with various P53, PIK3CA, and PTEN statuses were used for this study. GBM cells were maintained as monolayer cultures and GICs were cultured as GBM neurospheres in DMEM/F12 medium containing B27 supplement (Invitrogen, Grand Island, NY) and basic fibroblast growth factor, and epidermal growth factor (20 ng/ml each).
The antiproliferative effect of DS on cells growing in culture was determined using the CellTiter-Blue (Promega, Madison, WI) viability assay. […]

[2] = system: glioma cell lines U87 and U251; assay: cell viability with DS, TMZ and the combination; format: cell-based; conditions: Homo sapiens, U-251, TMZ 200 μM, DS 200 nM, alone or combined
Description: To investigate the ability of DS to modify the response of glioma cells to TMZ treatment, we evaluated the effects of TMZ (200 μM) alone, DS (200 nM) alone, and a combination of both TMZ and DS on the viability of the glioma cell lines U87 and U251 (Figure 5A).
The antiproliferative effect of DS on cells growing in culture was determined using the CellTiter-Blue (Promega, Madison, WI) viability assay. The mean drug concentration required to inhibit cell proliferation by 50% (IC50) compared with vehicle-treated controls was calculated using CalcuSyn Version 2.0 software (Great ShelfordCambridge, United Kingdom).

U87 GFP-LC3 cells = assay: GFP-LC3 puncta detection (autophagy); format: cell-based, human; conditions: TMZ 125 μM, DS 100 nM, control 2%
Text: To investigate the effects of DS, TMZ, or the TMZ/DS combination on autophagy in glioma cells, we transfected cells with GFP-LC3 constructs in addition to various drug treatment and control treatment regimens and examined the accumulation of punctate GFP-LC3 structures using fluorescence microscopy. During autophagy, LC3-II relocalizes to the autophagosomal membranes. Thus, the accumulation of GFP-LC3 puncta provides an effective way to detect autophagosomes. In control cells, GFP-LC3 punctate structures were not detected, but large numbers of GFP-LC3 punctate structures were found in cells treated with DS or TMZ (Figure 5C). […] Strikingly, the combination of DS and TMZ further induced autophagy in up to 50% of U87 cells.
U87 GFP-LC3 cells were analyzed by using a fluorescence microscope, and the percentage of cells displaying GFP-LC3-positive puncta was quantified by counting 5 random fields in 3 independent experiments.

Akt phosphorylation = assay: Western blot of PI3K signaling proteins in glioma cells; format: cell-based, human; conditions: 200 nM DS
Description: The levels of PI3K/mTOR signaling proteins, including pAkt, pS6 and P4EBP1 decreased in a dose- and time-dependent manner in all tested glioma cells (Figure 2A and 2B) as well as in the glioma tumor-initiating cell line GSC11 (Figure 2A and 2B). DS suppression of pAkt caused subsequent effects on Akt effectors such as 4EBP1 and S6 at 200-nM concentrations, and the maximum effects on Akt phosphorylation were observed 8 hours after 200 nM DS treatment.
Figure 2 DS7423 suppresses the PI3K signaling pathway in a dose- or time-dependent manner A. and B. Western blotting was performed to analyze the cellular protein levels of PI3K signaling proteins in U87 and LN229 glioma cells and GSC11 GICs. Cells were treated with the indicated doses of DS7423 for the indicated time intervals. DS7423 inhibited phosphorylation of the PI3K signaling components pAKT, pS6, and p4EBP1 in a time-dependent manner. D. Cells treated with the indicated doses of DS7423 for 24 hours. DS7423 inhibited phosphorylation of the PI3K signaling components pAKT, pS6, and p4EBP1 in a dose-dependent manner.
Cells were incubated with DS and then harvested and extracts were prepared for immunoblotting analysis. […]

p110β, sequence (P42338 whole entry): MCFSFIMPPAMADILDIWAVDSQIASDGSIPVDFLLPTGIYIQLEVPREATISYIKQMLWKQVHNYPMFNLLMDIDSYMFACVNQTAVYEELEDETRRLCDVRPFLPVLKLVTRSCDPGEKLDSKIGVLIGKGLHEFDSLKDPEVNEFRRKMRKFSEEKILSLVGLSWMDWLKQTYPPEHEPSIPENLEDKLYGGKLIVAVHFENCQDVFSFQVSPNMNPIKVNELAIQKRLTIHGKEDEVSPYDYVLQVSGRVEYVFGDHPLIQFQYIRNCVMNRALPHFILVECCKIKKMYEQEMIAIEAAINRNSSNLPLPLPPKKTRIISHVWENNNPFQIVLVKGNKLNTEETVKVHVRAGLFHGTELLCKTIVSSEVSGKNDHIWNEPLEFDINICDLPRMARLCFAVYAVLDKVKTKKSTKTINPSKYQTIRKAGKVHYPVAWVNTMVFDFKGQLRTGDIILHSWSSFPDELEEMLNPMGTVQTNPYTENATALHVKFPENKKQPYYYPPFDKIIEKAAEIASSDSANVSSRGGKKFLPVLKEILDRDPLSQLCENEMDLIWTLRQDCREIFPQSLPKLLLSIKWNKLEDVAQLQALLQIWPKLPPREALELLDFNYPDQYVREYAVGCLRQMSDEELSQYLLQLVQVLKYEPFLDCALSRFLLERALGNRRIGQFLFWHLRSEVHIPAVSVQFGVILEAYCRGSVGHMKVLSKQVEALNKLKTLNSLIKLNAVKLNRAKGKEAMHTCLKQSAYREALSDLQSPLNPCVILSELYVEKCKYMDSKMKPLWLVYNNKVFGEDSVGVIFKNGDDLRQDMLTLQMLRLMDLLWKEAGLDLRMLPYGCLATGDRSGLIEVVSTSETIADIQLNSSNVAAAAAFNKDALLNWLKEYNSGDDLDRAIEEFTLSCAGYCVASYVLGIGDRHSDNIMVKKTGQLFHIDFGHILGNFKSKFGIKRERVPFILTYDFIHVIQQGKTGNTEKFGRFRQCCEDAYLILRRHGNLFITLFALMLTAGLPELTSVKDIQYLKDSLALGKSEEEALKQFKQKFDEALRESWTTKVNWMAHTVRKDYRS
p110β, sequence (P27986 whole entry partner): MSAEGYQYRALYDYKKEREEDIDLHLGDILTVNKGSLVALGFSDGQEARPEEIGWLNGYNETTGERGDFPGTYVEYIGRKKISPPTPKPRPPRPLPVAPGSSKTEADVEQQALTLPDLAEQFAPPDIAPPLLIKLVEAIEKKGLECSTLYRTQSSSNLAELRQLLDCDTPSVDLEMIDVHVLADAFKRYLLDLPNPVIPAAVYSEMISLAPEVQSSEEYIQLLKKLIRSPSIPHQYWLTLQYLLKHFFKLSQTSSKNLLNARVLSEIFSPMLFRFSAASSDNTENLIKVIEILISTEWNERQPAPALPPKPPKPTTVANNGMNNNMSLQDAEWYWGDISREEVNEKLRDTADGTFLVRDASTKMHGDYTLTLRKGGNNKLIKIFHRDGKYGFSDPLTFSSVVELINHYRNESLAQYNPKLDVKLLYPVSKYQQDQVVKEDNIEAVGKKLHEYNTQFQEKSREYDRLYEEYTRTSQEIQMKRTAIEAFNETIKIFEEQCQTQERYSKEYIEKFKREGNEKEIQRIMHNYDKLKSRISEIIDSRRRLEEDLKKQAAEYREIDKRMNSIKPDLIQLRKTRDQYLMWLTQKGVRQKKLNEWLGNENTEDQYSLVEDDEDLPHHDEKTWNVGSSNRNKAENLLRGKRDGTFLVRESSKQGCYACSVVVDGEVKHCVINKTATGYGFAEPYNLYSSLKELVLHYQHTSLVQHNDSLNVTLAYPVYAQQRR
p110δ, sequence (O00329 whole entry): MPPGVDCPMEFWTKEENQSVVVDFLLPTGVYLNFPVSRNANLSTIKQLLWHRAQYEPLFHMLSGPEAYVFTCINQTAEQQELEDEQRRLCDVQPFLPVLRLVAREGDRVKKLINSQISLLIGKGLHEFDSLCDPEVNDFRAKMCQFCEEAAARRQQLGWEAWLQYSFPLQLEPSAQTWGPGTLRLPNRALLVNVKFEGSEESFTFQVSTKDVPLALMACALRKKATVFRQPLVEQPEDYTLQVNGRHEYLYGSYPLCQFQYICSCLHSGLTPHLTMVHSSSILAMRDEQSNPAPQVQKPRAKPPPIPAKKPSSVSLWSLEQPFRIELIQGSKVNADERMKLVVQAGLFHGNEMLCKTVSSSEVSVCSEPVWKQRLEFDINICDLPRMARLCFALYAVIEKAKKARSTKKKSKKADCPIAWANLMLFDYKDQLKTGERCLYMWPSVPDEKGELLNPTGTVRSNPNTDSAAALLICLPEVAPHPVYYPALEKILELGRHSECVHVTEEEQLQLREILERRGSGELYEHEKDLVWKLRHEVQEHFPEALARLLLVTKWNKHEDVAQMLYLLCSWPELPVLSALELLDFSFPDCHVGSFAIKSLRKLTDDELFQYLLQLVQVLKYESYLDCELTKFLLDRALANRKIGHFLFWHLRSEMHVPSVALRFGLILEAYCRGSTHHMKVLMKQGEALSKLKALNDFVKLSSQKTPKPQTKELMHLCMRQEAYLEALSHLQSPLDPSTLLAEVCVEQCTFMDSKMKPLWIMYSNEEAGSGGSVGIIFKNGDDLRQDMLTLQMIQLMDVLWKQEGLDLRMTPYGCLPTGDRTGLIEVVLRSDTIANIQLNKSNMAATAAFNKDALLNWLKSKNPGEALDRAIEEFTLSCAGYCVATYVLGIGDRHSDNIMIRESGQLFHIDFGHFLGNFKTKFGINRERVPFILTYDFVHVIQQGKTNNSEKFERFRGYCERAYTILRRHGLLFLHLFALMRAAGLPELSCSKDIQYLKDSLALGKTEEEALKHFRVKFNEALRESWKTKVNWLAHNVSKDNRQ
p110δ, sequence (P27986 whole entry partner): as the sequence (P27986 whole entry partner) above
p110α, sequence (P42336 whole entry): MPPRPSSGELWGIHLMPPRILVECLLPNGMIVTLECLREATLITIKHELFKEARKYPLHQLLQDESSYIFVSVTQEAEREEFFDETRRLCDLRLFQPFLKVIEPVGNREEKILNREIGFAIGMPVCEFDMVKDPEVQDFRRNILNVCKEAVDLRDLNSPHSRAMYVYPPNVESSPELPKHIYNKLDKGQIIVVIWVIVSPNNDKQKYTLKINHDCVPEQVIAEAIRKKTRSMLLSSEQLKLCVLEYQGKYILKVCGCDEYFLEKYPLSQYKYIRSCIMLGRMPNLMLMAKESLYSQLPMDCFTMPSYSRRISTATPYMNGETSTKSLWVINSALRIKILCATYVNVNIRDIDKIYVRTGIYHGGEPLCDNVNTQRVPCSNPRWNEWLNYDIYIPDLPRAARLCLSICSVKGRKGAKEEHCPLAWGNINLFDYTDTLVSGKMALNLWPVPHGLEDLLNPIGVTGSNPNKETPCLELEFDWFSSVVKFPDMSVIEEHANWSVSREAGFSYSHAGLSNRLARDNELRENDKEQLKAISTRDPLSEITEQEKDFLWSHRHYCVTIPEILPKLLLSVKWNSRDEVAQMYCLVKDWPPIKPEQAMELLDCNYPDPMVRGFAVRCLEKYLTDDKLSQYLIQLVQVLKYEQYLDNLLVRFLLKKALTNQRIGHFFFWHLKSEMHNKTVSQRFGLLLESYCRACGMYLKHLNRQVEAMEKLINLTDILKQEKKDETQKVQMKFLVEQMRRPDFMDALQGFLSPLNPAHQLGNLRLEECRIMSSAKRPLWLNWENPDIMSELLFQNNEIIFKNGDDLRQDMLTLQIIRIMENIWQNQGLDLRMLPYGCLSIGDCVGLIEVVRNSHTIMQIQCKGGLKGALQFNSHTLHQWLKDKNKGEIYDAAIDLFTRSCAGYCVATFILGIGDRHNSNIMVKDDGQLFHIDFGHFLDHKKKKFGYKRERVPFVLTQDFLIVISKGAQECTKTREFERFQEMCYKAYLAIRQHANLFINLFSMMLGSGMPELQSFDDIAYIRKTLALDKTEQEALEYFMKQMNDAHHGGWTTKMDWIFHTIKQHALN
p110α, sequence (P27986 whole entry partner): as the sequence (P27986 whole entry partner) above

## CC(=O)N1CCN(c2nc3c(N4CCOCC4)nc(-c4cnc(N)nc4)nc3n2CC(F)(F)F)C[C@H]1C [DS, 1-{(2R)-4-[2-(2-Aminopyrimidin-5-yl)-6-(morpholin-4-yl)-9-(2,2,2-trifluoroethyl)-9H-purin-8-yl]-2-methylpiperazin-1-yl}ethan-1-one]
p110α
  IC50: 17 nM
p110δ
  IC50: 262 nM
p110β
  IC50: 1140 nM
Panel of 227 kinases
  inhibition of a representative panel of 227 kinases: poorly inhibited
[1]; Glioma cell, GBM cells and GICs, 72 hours exposure, read-out: half maximal inhibitory concentration range of cells considered sensitive
  IC50: 150 to 265 nM
[1]; 9 glioma cell lines and 22 GIC lines, 72 hours, read-out: mean 50% inhibitory concentration, growth of glioma tumor cell lines and GICs
  IC50: < 250 nM
[2]
  viability at 0.2 µM: 63%
U87 GFP-LC3 cells
  cells with induced autophagy (GFP-LC3 puncta): 30%
Akt phosphorylation
  time of maximum effects on Akt phosphorylation: 8 h

From PMC5400620, “Preclinical therapeutic efficacy of a novel blood-brain barrier-penetrant dual PI3K/mTOR inhibitor with preferential response in PI3K/PTEN mutant glioma” (Oncotarget, 2017)
